From ChEMBL document CHEMBL3046535, “Evaluation of some weed control treatments for long season weed control in maize (Zea mays L.) under zero and minimum tillage at Samaru, in Nigeria” (Crop Prot, 2008)

Legend:
Assay type in all cases: organism-based
Zea mays [1] = experiment: Toxicity in Zea mays TZBSR (maize) assessed as crop vigour at 1.5 kg a.i/ha applied post-emergence after ridgining at minimum tillage conditions using Knapsack sprayer; settings: in vivo, other
Zea mays [2] = experiment: Toxicity in Zea mays TZBSR (maize) assessed as plant height at 1.5 kg a.i/ha applied post-emergence after ridgining at minimum tillage conditions using Knapsack sprayer measured 9 weeks post treatment; settings: in vivo, other, 1512 h
Zea mays [3] = experiment: Toxicity in Zea mays TZBSR (maize) assessed as crop stand count at 1.5 kg a.i/ha applied post-emergence after ridgining at minimum tillage conditions using Knapsack sprayer measured 6 weeks post treatment; settings: in vivo, other, 1008 h
Zea mays [4] = experiment: Toxicity in Zea mays TZBSR (maize) assessed as crop injury at 1.5 kg a.i/ha applied post-emergence after ridgining at minimum tillage conditions using Knapsack sprayer; settings: in vivo, other

| SMILES | Activity (Zea mays [1]) | Activity (Zea mays [2]) | Activity (Zea mays [3]) | Activity (Zea mays [4]) |
| --- | --- | --- | --- | --- |
| O=C(O)COc1ccc(Cl)cc1Cl [2,4-DICHLOROPHENOXYACETIC ACID] | Non-toxic | 3.33 m | Non-toxic | Non-toxic |
| CCNc1nc(Cl)nc(NC(C)C)n1 [ATRAZINE] | Non-toxic | 3.35 m | – | Non-toxic |
